Source: patent US6642251B1, “Geometrically restricted 2-indolinone derivatives as modulators of protein kinase activity” (Sugen, Inc., priority 1998, dated 2003)

System: HUV-EC-C cells (human umbilical vein endothelial cells)
Test: HUV-EC-C assay, VEGF-stimulated (VEGF HUVEC)
Format: cell-based
Procedure: The following protocol may also be used to measure a compound's activity against PDGF-R, FGF-R, VEGF, aFGF or Flk-1/KDR, all of which are naturally expressed by HUV-EC cells.
1. Wash and trypsinize HUV-EC-C cells (human umbilical vein endothelial cells, (American Type Culture Collection; catalogue no. 1730 CRL). Wash with Dulbecco's phosphate-buffered saline (D-PBS; obtained from Gibco BRL; catalogue no. 14190-029) 2 times at about 1 ml/10 cm^2 of tissue culture flask. Trypsinize with 0.05% trypsin-EDTA in non-enzymatic cell dissociation solution (Sigma Chemical Company; catalogue no. C-1544). The 0.05% trypsin is made by diluting 0.25% trypsin/l mM EDTA (Gibco; catalogue no. 25200-049) in the cell dissociation solution. Trypsinize with about 1 ml/25-30 cm^2 of tissue culture flask for about 5 minutes at 37° C. After cells have detached from the flask, add an equal volume of assay medium and transfer to a 50 ml sterile centrifuge tube (Fisher Scientific; catalogue no. 05-539-6).
2. Wash the cells with about 35 ml assay medium in the 50 ml sterile centrifuge tube by adding the assay medium, centrifuge for 10 minutes at approximately 200×g, aspirate the supernatant, and resuspend with 35 ml D-PBS. Repeat the wash two more times with D-PBS, resuspend the cells in about 1 ml assay medium/15 cm^2 of tissue culture flask. […]

IC50 | SMILES
330 nM | O=C1Nc2ccccc2/C1=C1\CCc2ccccc21 [Compound 10, 3-Indan-1-ylidene-1,3-dihydroindol-2-one]
50 nM | COc1ccc2c(c1)C(CC(=O)O)C/C2=C1/C(=O)Nc2ccccc21 (centres unmarked) [Compound 11, [6-Methoxy-3-(2-oxo-1,2-dihydroindol-3-ylidene)-indan-1-yl]acetic Acid]
